One may read the melting point as the temperature of the solid-liquid transition.

The subject of data set [1] is cucumber gray mold fungus (Botrytis cinerea). Kind of data set: Preventive test against gray mold on cucumber cotyledon leaves, spray treatment, preventive value and Colby expected value (Test Examples 1-4). In kind it is in vivo. The following applies: single compound. The procedure:
Using the following compound listed in Table 2 (the active ingredient A) and the compound listed in Table 5 through Table 15 (active ingredient B), an agent was prepared in accordance with the above Formulation Example. This agent was diluted with water to a predetermined concentration to obtain a test solution. Then, cucumber (variety: Sagami-hanjiro) was planted in a plastic pot of 90 cm^3, and in the cotyledon stage, 5 ml of the obtained test solution, was sprayed by a spray gun and air-dried. Thereafter, the treated leaf was cut off and placed in a plastic container which filled approximately 0.5 cm in depth water. A suspension of conidia of cucumber gray mold fungus (Botrytis cinerea) and a dissolved PDA culture medium were mixed at a ratio of 1:1 (mass ratio), and the mixture was dropped to inoculate the treated leaf with 30 μl. After the inoculation, the plastic container was sealed and left at 20° C. for 3 days, the ratio of the formed lesion occupying the inoculated leaf was measured, and the preventive value was calculated in accordance with the following calculation formula. Preventive value=[1−(treated plot lesion area ratio/untreated plot lesion area ratio)]×100
Further, from the preventive value at each agent concentration, synergy was calculated by using the Colby method (Colby S. R. 1976, Weeds 15, 20-22). The calculation method is as follows. E=X+Y−XY/100
X: preventive value of A agent at x concentration
Y: preventive value of B agent at y concentration
E: theoretical value expected by treatment of the mixture of A agent and B agent.
The obtained result is analyzed to be synergy if the observed value is larger than the expected value, to be antagonism if the expected value is larger than the observed value, and to be an additive effect if the observed value and the expected value are the same.
Using the following compound listed in Table 2 (active ingredient A) and the following compound listed in Table 5 through Table 15 (active ingredient B) as active ingredients, a preventive test against gray mold was conducted in accordance with the method described in Test Example 1.
Using the following compound listed in Table 2 (active ingredient A) and the following compound listed in Table 5 or Table 6 (active ingredient B) as active ingredients, a preventive test against gray mold was conducted in accordance with the method described in Test Example 1.
Using the following compound listed in Table 2 (active ingredient A) and the following compound listed in Table 6 through Table 16 (active ingredient B) as active ingredients, a preventive test against gray mold was conducted in accordance with the method described in Test Example 1.

For data set [2], the system named is rice sheath blight fungus (Rhizoctonia solani). Kind of data set: Efficacy test on rice sheath blight, spray treatment and prevention test (Test Examples 5-6). In kind it is in vivo. As to conditions: single compound 250 ppm, lesion height. As to the method:
An agent comprising the following compound listed in Table 2 (active ingredient A) and the compound listed in Table 6 (C17: active ingredient B) as active ingredients, was prepared in accordance with the above Formulation Example. The agent was diluted with water to a predetermined concentration to obtain a test solution. Then, in a plastic pot of 90 cm^3, rice (Nipponbare) was seeded by 5 grains in one place, and to the grown seedlings in 4 seedling phase, the test solution was applied by a spray gun in an amount of 5 ml per pot, for treatment.
One day after the treatment, 1 g of mycelium flora of rice sheath blight fungus (Rhizoctonia solani) cultured in bran medium, was put by […] to a close-to-ground part of seedlings, and the pot was placed in a moist chamber set in temperature of 25° C. and humidity more than 95% RH for eight days. The height of the lesions which appeared in the highest position from the close-to-ground part (lesion height) was investigated, and the preventive value was calculated in accordance with the following formula. Preventive value=[1−(treated plot lesion height/untreated plot lesion height)]×100
(§1) Further, from the preventive value for each agent concentration, synergy was calculated by using the Colby method (Colby S. R. 1976, Weeds 15, 20-22).
Using the following compound listed in Table 2 (active ingredient A) and the compound listed in Table 6 (C17: active ingredient B) as active ingredients, a preventive test on rice sheath blight was conducted in accordance with the above Test Example 5.

Data set [3] relates to cucumber downy mildew (Pseudoperenospora cubensis). Kind of data set: Efficacy test on cucumber downy mildew, spray treatment and prevention test (Test Example 7). In kind it is in vivo. As to conditions: single compound 250 ppm; lesion area ratio. The procedure:
An agent comprising the following compound listed in Table 2 (active ingredient A) and the compound listed in Table 6 (C40: active ingredient B) as active ingredients, was prepared in accordance with the above Formulation Example. This agent was diluted with water to a predetermined concentration to obtain a test solution. Then, to seedlings of cucumber (variety: Sagami-hanjiro) at 1.5-leaf stage grown in a pot with a diameter of 7 cm, the test solution was applied by a spray gun in an amount of 10 ml per pot, for treatment. One day after the treatment, a spore suspension (2×100,000 cfu/ml) of cucumber downy mildew (Pseudoperenospora cubensis), was spray-inoculated, and the pot was placed in a moist chamber set in temperature of 20° C. and humidity more than 95% RH for 24 hours. After placing the pot in a glass greenhouse for 6 days, the ratio of the formed lesion area occupying the inoculated leaves was measured, and the preventive value was calculated in accordance with the following formula. Preventive value=[1−(treated plot lesion area ratio/untreated plot lesion area ratio)]×100
as §1

In data set [4] the test system is wheat glume blotch (Leptosphaeria nodorum). In words: Efficacy test on wheat glume blotch, spray treatment and prevention test (Test Example 8). In kind it is in vivo. As to conditions: spray, lesion area ratio. The procedure: An agent comprising the following compound listed in Table 2 (active ingredient A) and the following compound listed in Table 6, Table 11 or Table 15 (active ingredient B) as active ingredients, was prepared in accordance with the above Formulation Example. This agent was diluted with water to a predetermined concentration to obtain a test solution. Then, to seedlings of wheat (variety: Haruyutaka) at the 1-leaf stage, seeded in a pot with a diameter of 7 cm, with 5 seeds per pot, and grown for 7 days, the test solution was applied by a spray gun in an amount of 5 ml per pot, for treatment. One day after the treatment, a spore suspension (1×100,000 cfu/ml) of wheat glume blotch (Leptosphaeria nodorum) was spray-inoculated, and the pot was placed in a moist chamber set in temperature of 20° C. and humidity more than 95% RH for 48 hours. After placing the pot in a glass greenhouse for 7 days, the ratio of the formed lesion area occupying the inoculated leaves was measured, and the preventive value was calculated in accordance with the following formula. Preventive value=[1−(treated plot lesion area ratio/untreated plot lesion area ratio)]×100
as §1

The subject of data set [5] is wheat powdery mildew (Blumeria graminis). Kind of data set: Efficacy test on wheat powdery mildew, seed treatment (Test Example 10). In kind it is in vivo. The following applies: wheat (Norin 61). As to the method: An agent comprising the following compound listed in Table 2 (active ingredient A) and the compound listed in Table 11 (H35: active ingredient B) as active ingredients, was prepared in accordance with the above Formulation Example. This agent was diluted with water to a predetermined concentration to obtain a test solution. A predetermined amount of test solution was put in a glass bottle of 5 ml, and 0.5 g (approximately 15 grains) of wheat seeds (variety: Norin 61) were added, stirred and air-dried. In each pot with a diameter of 7 cm and having soil put therein, 3 grains were seeded and grown for 14 days. To the wheat seedlings grown to the 1-leaf stage, a spore suspension (100,000 cfu/ml) of wheat powdery mildew (Blumeria graminis) was spray-inoculated. After placing the pot in a glass greenhouse for 10 days, the ratio of the formed lesion area occupying the inoculated leaves was measured, and the preventive value was calculated in accordance with the following formula. Preventive value=[1−(treated plot lesion area ratio/untreated plot lesion area ratio)]×100
(§2) Further, from the preventive value at each agent concentration, synergy was calculated by using the Colby method (Colby S. R. 1976, Weeds 15, 20-22).

For data set [6], the system named is cucumber powdery mildew (Sphaerotheca cucurbitae). Kind of data set: Efficacy test on cucumber powdery mildew, irrigation treatment (Test Example 11). In kind it is in vivo. As to conditions: cucumber (Sagami-hanjiro). As to the method: An agent comprising the following compound listed in Table 2 (active ingredient A) and the compound listed in Table 6 (C18: active ingredient B), was prepared in accordance with the above Formulation Example. This agent was diluted with water to a predetermined concentration to obtain a test solution. 5 ml of the test solution was irrigated by a pipette to the close-to-ground part of cucumber seedlings at the 1 leaf stage (variety: Sagami-hanjiro), grown in a styrol cup with a diameter of 10 cm, and next day, the seedlings were transplanted to the to 4 cun pots. Then, after cultivation for 7 days in a glass greenhouse, to the first true leaf of the cucumber, a spore suspension (100,000 cfu/ml) of cucumber powdery mildew (Sphaerotheca cucurbitae) was inoculated by spraying. After 10 days in a glass greenhouse, the ratio of the formed lesion area occupying the inoculated leaves was measured, and the preventive value was calculated in accordance with the following formula. Preventive value=[1−(treated plot lesion area ratio/untreated plot lesion area ratio)]×100
as §2

The mark [7] stands for this setting: processing amount 5 mg/1 g seed.
[8] abbreviates: processing amount 10 mg/1 g seed.

For the compound `CCC(C)ON=C(CNC(=O)c1cn(C)nc1C(F)F)c1ncc(C#CC2CC2)cc1Cl` (mixture of isomers) [Compound No. 27], the Preventive value in data set [1] (Test Example 2, 3 ppm spray) amounted to 50; in data set [1] (Test Example 3, 3 ppm spray), 55; in data set [1] (Test Example 4, 3 ppm spray), 45; in data set [2] (Test Example 6), 8; in data set [3], 0; in data set [4] (single compound 3 ppm), 75. Further, the Preventive value was 85 in data set [4] (single compound 10 ppm), 85 in data set [5] (setting [7]), 90 in data set [5] (setting [8]) and 60 in data set [6] (concentration 500 ppm).
In turn, `CO/N=C(/CNC(=O)c1ccccc1C(F)(F)F)c1ncc(Cl)c(OC)c1Cl` [Compound No. 8, (Z)—N-[2-[3,5-dichloro-4-(methoxy)pyridin-2-yl]-2-(methoxyimino)ethyl]-2-(trifluoromethyl)benzamide] registered a melting point of 74 to 76 °C.
Consider `CO/C=C(/C(=O)OC)c1ccccc1Oc1cc(Oc2ccccc2C#N)ncn1` [Compound No. C18, azoxystrobin, reference compound], for which the Preventive value was 30 in data set [1] (Test Example 1, 3 ppm spray); 28 in data set [1] (Test Example 2, 3 ppm spray); 65 in data set [4] (single compound 1 ppm); 50 in data set [6] (concentration 6.3 ppm).
Turning to `CC#Cc1cnc(C(CNC(=O)c2ccccc2C(F)(F)F)=NOC(C)C)c(Cl)c1` [compound 18], the Preventive value in data set [1] (Test Example 1, 3 ppm spray) is 88; in data set [1] (Test Example 3, 3 ppm spray) it was 85; in data set [1] (Test Example 4, 3 ppm spray), 75; in data set [2] (Test Example 5) it was 8; in data set [3], 0; in data set [4] (single compound 3 ppm) it was 50. Moreover, the Preventive value in data set [4] (single compound 10 ppm) is given as 65; in data set [5] (setting [7]) it was 62; in data set [5] (setting [8]), 98; in data set [6] (concentration 500 ppm), 35.
Take `CC(C)ON=C(CNC(=O)c1ccccc1C(F)(F)F)c1ncc(Cl)c(S(C)(=O)=O)c1Cl` [compound 32]: the Preventive value came to 94 in data set [1] (Test Example 2, 1 ppm spray); 90 in data set [1] (Test Example 3, 1 ppm spray); 80 in data set [1] (Test Example 4, 1 ppm spray); 6 in data set [2] (Test Example 6); 0 in data set [3]; 60 in data set [4] (single compound 3 ppm). In addition, the Preventive value in data set [4] (single compound 10 ppm) was found to be 85; in data set [6] (concentration 500 ppm), 30.
For `O=C(NCC(=NOCC(F)(F)F)c1ncc(Cl)cc1Cl)c1ccccc1C(F)(F)F` [compound 33], the Preventive value came out at 45 in data set [1] (Test Example 2, 3 ppm spray); 45 in data set [1] (Test Example 3, 3 ppm spray); 50 in data set [1] (Test Example 4, 3 ppm spray); 4 in data set [2] (Test Example 6); 0 in data set [3]; 20 in data set [4] (single compound 3 ppm). The Preventive value in data set [4] (single compound 10 ppm) is listed as 45; in data set [5] (setting [7]), 20; in data set [5] (setting [8]) it was 61; in data set [6] (concentration 500 ppm), 15.
With `CC#Cc1cnc(C(CNC(=O)c2cn(C)nc2C(F)F)=NOC(C)(C)C)c(Cl)c1` [compound 34], the Preventive value in data set [1] (Test Example 2, 1 ppm spray) stood at 63; in data set [1] (Test Example 3, 1 ppm spray), 70; in data set [1] (Test Example 4, 1 ppm spray) it was 50; in data set [2] (Test Example 6) it was 5; in data set [3] it was 5; in data set [4] (single compound 3 ppm) it was 80. The Preventive value in data set [4] (single compound 10 ppm) was 85; in data set [5] (setting [7]) it was 20; in data set [5] (setting [8]) it was 85; in data set [6] (concentration 500 ppm), 60.
On to `CON=C(CNC(=O)c1cccnc1Cl)c1ncc(C#CC(C)(C)C)cc1Cl` [compound 35], for which the Preventive value in data set [1] (Test Example 1, 3 ppm spray) came out at 88; in data set [1] (Test Example 3, 3 ppm spray), 90; in data set [1] (Test Example 4, 3 ppm spray), 88; in data set [2] (Test Example 6) it was 5; in data set [3], 0; in data set [4] (single compound 3 ppm), 50. The Preventive value is given as 70 in data set [4] (single compound 10 ppm), 20 in data set [5] (setting [7]), 61 in data set [5] (setting [8]) and 30 in data set [6] (concentration 500 ppm).
Turning to `CON=C(CNC(=O)c1ccccc1C(F)(F)F)c1ncc(C#CC2CC2)cc1Cl` [compound 36], the Preventive value turned out to be 75 in data set [1] (Test Example 1, 3 ppm spray); 80 in data set [1] (Test Example 3, 3 ppm spray); 80 in data set [1] (Test Example 4, 3 ppm spray); 0 in data set [2] (Test Example 5); 0 in data set [3]; 55 in data set [4] (single compound 3 ppm). The Preventive value in data set [4] (single compound 10 ppm) turned out to be 70; in data set [5] (setting [7]), 99; in data set [5] (setting [8]), 100; in data set [6] (concentration 500 ppm), 35.

Source of the values: US9974305B2, “Fungicidal or bactericidal composition, and method for controlling diseases” (NISSAN CHEMICAL INDUSTRIES, LTD., priority 2014, dated 2018).
